Drawing on ChEMBL document CHEMBL1152559, “Antioxidant activity of 5,10-dihydroindeno[1,2-b]indoles containing substituents on dihydroindeno part” (Bioorg Med Chem, 2009), this text covers IC50 for 24 molecules.

Holding throughout (assay type): functional
A short description of assay [1]: Antioxidant activity assessed as hydrogen peroxide radical scavenging activity.
The nature of assay [2]: Antioxidant activity assessed as ABTS radical scavenging activity.
A short description of assay [3]: Antioxidant activity assessed as superoxide anion scavenging activity by NBT reduction assay.
In assay [4] the test system is Radical scavenging activity. Briefly: Antioxidant activity assessed as DPPH radical scavenging activity. A general note: Loss of DPPH colour is used to gauge radical scavenging.
The nature of assay [5]: Antioxidant activity assessed as DMPD radical scavenging activity.

Molecules are shown by their SMILES. In brackets after ≈: the same amount, converted by molar mass.

In general, IC50 refers to the concentration that inhibits the measured activity by half.

As for `Brc1ccc2c(c1)Cc1c-2[nH]c2ccccc12`, the IC50 in assay [1] worked out at 8.47 µg/mL (≈ 29.8 µM); in assay [2] it was 63.63 µg/mL (≈ 224 µM); in assay [3], 14.39 µg/mL (≈ 50.6 µM); in assay [4], 64.12 µg/mL (≈ 226 µM); in assay [5], 15.34 µg/mL (≈ 54 µM).

Regarding `Oc1ccc2c(c1)Cc1c-2[nH]c2ccccc12`, the IC50 turned out to be 4.47 µg/mL (≈ 20.2 µM) in assay [1]; 39.85 µg/mL (≈ 180 µM) in assay [2]; 26.61 µg/mL (≈ 120 µM) in assay [3]; 11.67 µg/mL (≈ 52.7 µM) in assay [4]; 130.07 µg/mL (≈ 588 µM) in assay [5].

Regarding `Fc1ccc2c(c1)Cc1c-2[nH]c2ccccc12`, the IC50 stood at 4.41 µg/mL (≈ 19.8 µM) in assay [1]; 39.1 µg/mL (≈ 175 µM) in assay [2]; 16.49 µg/mL (≈ 73.9 µM) in assay [3]; 49.73 µg/mL (≈ 223 µM) in assay [4]; 31.47 µg/mL (≈ 141 µM) in assay [5].

For `Oc1ccc2c(c1)-c1[nH]c3ccccc3c1C2`, the IC50 in assay [1] worked out at 3.25 µg/mL (≈ 14.7 µM); in assay [2], 20.71 µg/mL (≈ 93.6 µM); in assay [3], 18.55 µg/mL (≈ 83.8 µM); in assay [4] it was 27.4 µg/mL (≈ 124 µM); in assay [5] it was 14.76 µg/mL (≈ 66.7 µM).

Take `COc1cc2c(c(OC)c1)-c1[nH]c3ccccc3c1C2`: the IC50 in assay [1] was 3.35 µg/mL (≈ 12.6 µM); in assay [2], 23.04 µg/mL (≈ 86.8 µM); in assay [3], 20.43 µg/mL (≈ 77 µM); in assay [4], 33.31 µg/mL (≈ 126 µM); in assay [5], 60.46 µg/mL (≈ 228 µM).

As to `Oc1cc(O)c2c(c1)Cc1c-2[nH]c2ccccc12`, the IC50 in assay [1] turned out to be 5.47 µg/mL (≈ 23.1 µM); in assay [2], 49.04 µg/mL (≈ 207 µM); in assay [3] it was 11.46 µg/mL (≈ 48.3 µM); in assay [4], 72.89 µg/mL (≈ 307 µM); in assay [5], 39.38 µg/mL (≈ 166 µM).

For `COc1ccc2c(c1)-c1[nH]c3ccccc3c1C2`, the IC50 came out at 7.02 µg/mL (≈ 29.8 µM) in assay [1]; 54.15 µg/mL (≈ 230 µM) in assay [2]; 19.86 µg/mL (≈ 84.4 µM) in assay [3]; 48.57 µg/mL (≈ 206 µM) in assay [4]; 15.01 µg/mL (≈ 63.8 µM) in assay [5].

As for `COc1ccc2c(c1OC)Cc1c-2[nH]c2ccccc12`, the IC50 in assay [1] came to 25.43 µg/mL (≈ 95.8 µM); in assay [2], 81.39 µg/mL (≈ 307 µM); in assay [3] it was 12.42 µg/mL (≈ 46.8 µM); in assay [4], 33.16 µg/mL (≈ 125 µM); in assay [5], 46.44 µg/mL (≈ 175 µM).

Take `COc1ccc(O)c(C(C)(C)C)c1.COc1ccc(O)cc1C(C)(C)C` [BUTYLATED HYDROXYANISOLE]: the IC50 in assay [1] was found to be 2.65 µg/mL; in assay [2] it was 4.65 µg/mL; in assay [3], 68.82 µg/mL; in assay [4] it was 16.67 µg/mL; in assay [5], 32.92 µg/mL.

For the molecule `Cc1c(C)c2c(c(C)c1O)CCC(C)(C(=O)O)O2` (stereo not drawn) [TROLOX], the IC50 amounted to 8.06 µg/mL (≈ 32.2 µM) in assay [1], 62.32 µg/mL (≈ 249 µM) in assay [2], 10.03 µg/mL (≈ 40.1 µM) in assay [4] and 195.11 µg/mL (≈ 780 µM) in assay [5].

`COc1cc2c(cc1OC)-c1[nH]c3ccccc3c1C2`: the half-maximal inhibitory concentration (IC50) in assay [1] came to 13.86 µg/mL (≈ 52.2 µM); in assay [2], 73.99 µg/mL (≈ 279 µM); in assay [3], 17.09 µg/mL (≈ 64.4 µM); in assay [4], 25.76 µg/mL (≈ 97.1 µM); in assay [5] it was 52.83 µg/mL (≈ 199 µM).

In the case of `c1ccc2c3c([nH]c2c1)-c1cc2c(cc1C3)OCO2`, the IC50 in assay [1] came to 3.39 µg/mL (≈ 13.6 µM); in assay [2], 23.67 µg/mL (≈ 95 µM); in assay [3] it was 16.11 µg/mL (≈ 64.6 µM); in assay [4], 13.07 µg/mL (≈ 52.4 µM); in assay [5] it was 18.62 µg/mL (≈ 74.7 µM).

As for `Oc1ccc2c(c1O)Cc1c-2[nH]c2ccccc12`, the IC50 was 3.16 µg/mL (≈ 13.3 µM) in assay [1]; 79.02 µg/mL (≈ 333 µM) in assay [2]; 31.14 µg/mL (≈ 131 µM) in assay [3]; 9.47 µg/mL (≈ 39.9 µM) in assay [4]; 34.79 µg/mL (≈ 147 µM) in assay [5].

With `Cc1cc(C(C)(C)C)c(O)c(C(C)(C)C)c1` [BUTYLATED HYDROXYTOLUENE], the IC50 in assay [1] amounted to 5.97 µg/mL (≈ 27.1 µM); in assay [2], 52.81 µg/mL (≈ 240 µM); in assay [3], 49.48 µg/mL (≈ 225 µM); in assay [4] it was 42.91 µg/mL (≈ 195 µM); in assay [5] it was 17.45 µg/mL (≈ 79.2 µM).

`COc1cccc2c1Cc1c-2[nH]c2ccccc12`: the IC50 turned out to be 3.74 µg/mL (≈ 15.9 µM) in assay [1]; 29.91 µg/mL (≈ 127 µM) in assay [2]; 21.99 µg/mL (≈ 93.5 µM) in assay [3]; 38.16 µg/mL (≈ 162 µM) in assay [4]; 28.5 µg/mL (≈ 121 µM) in assay [5].

As to `c1ccc2c(c1)Cc1c-2[nH]c2ccccc12`, the IC50 in assay [1] worked out at 7.14 µg/mL (≈ 34.8 µM); in assay [2], 58.66 µg/mL (≈ 286 µM); in assay [3], 12.64 µg/mL (≈ 61.6 µM); in assay [4], 65.91 µg/mL (≈ 321 µM); in assay [5], 32.92 µg/mL (≈ 160 µM).

As to `Clc1ccc2c(c1)Cc1c-2[nH]c2ccccc12`, the IC50 in assay [1] was 30.52 µg/mL (≈ 127 µM); in assay [2], 82.87 µg/mL (≈ 346 µM); in assay [3], 16.2 µg/mL (≈ 67.6 µM); in assay [4], 44.18 µg/mL (≈ 184 µM); in assay [5], 57.89 µg/mL (≈ 242 µM).

Turning to `Oc1ccc(O)c2c1Cc1c-2[nH]c2ccccc12`, the IC50 was 3.28 µg/mL (≈ 13.8 µM) in assay [1]; 21.56 µg/mL (≈ 90.9 µM) in assay [2]; 15.49 µg/mL (≈ 65.3 µM) in assay [3]; 11.92 µg/mL (≈ 50.2 µM) in assay [4]; 22.2 µg/mL (≈ 93.6 µM) in assay [5].

Consider `Oc1cc2c(cc1O)-c1[nH]c3ccccc3c1C2`, for which the IC50 came to 5.09 µg/mL (≈ 21.5 µM) in assay [1]; 45.98 µg/mL (≈ 194 µM) in assay [2]; 14.1 µg/mL (≈ 59.4 µM) in assay [3]; 29.44 µg/mL (≈ 124 µM) in assay [4]; 76.58 µg/mL (≈ 323 µM) in assay [5].

As to `COc1ccc(OC)c2c1Cc1c-2[nH]c2ccccc12`, the IC50 in assay [1] turned out to be 3.92 µg/mL (≈ 14.8 µM); in assay [2], 32.76 µg/mL (≈ 123 µM); in assay [3], 15.75 µg/mL (≈ 59.4 µM); in assay [4] it was 51.67 µg/mL (≈ 195 µM); in assay [5], 24.87 µg/mL (≈ 93.7 µM).

As to `Oc1cccc2c1Cc1c-2[nH]c2ccccc12`, the IC50 was 8.82 µg/mL (≈ 39.9 µM) in assay [1]; 64.69 µg/mL (≈ 292 µM) in assay [2]; 18.67 µg/mL (≈ 84.4 µM) in assay [3]; 36.27 µg/mL (≈ 164 µM) in assay [4]; 26.75 µg/mL (≈ 121 µM) in assay [5].

Take `Oc1cccc2c1-c1[nH]c3ccccc3c1C2`: the IC50 was 2.8 µg/mL (≈ 12.7 µM) in assay [1]; 9.72 µg/mL (≈ 43.9 µM) in assay [2]; 21.69 µg/mL (≈ 98 µM) in assay [3]; 10.12 µg/mL (≈ 45.7 µM) in assay [4]; 127.21 µg/mL (≈ 575 µM) in assay [5].

As to `Cc1c(C)c2c(c(C)c1O)CC[C@@](C)(CCC[C@H](C)CCC[C@H](C)CCCC(C)C)O2` [ALPHA-TOCOPHEROL], the IC50 in assay [1] was 11.82 µg/mL (≈ 27.4 µM); in assay [2] it was 73.15 µg/mL (≈ 170 µM); in assay [3] it was 33.17 µg/mL (≈ 77 µM); in assay [4], 13.41 µg/mL (≈ 31.1 µM).

As for `COc1ccc2c(c1)Cc1c-2[nH]c2ccccc12`, the IC50 in assay [1] was found to be 9.08 µg/mL (≈ 38.6 µM); in assay [2], 68.03 µg/mL (≈ 289 µM); in assay [3] it was 24.37 µg/mL (≈ 104 µM); in assay [4], 37.79 µg/mL (≈ 161 µM); in assay [5], 17.45 µg/mL (≈ 74.2 µM).
